Earlier results in US7026311B2, “Dibenzodiazepine derivatives, their preparation and use” (Abbott GmbH & Co., KG, priority 2002, dated 2006).

Details: S. Cuzzocrea et al., Br. J. Pharmacol. 1997

In the case of `NC(=O)c1cccc(N)c1` [Example 3-aminobenzamide, 3-aminobenzamide], the “effects in a model of circulatory shock” value is listed as “protective effects”.
